Results: patent publication US20160106102A1, “KNOWN AND NEW HETEROCYCLIC COMPOUNDS AS PEST CONTROL AGENTS” (BAYER CROPSCIENCE AKTIENGESELLSCHAFT, priority 2013, published 2016)
Where “and” joins values, the source holds several entries; their conditions need not be identical. Equal values may be shown once. Read-outs that look alike come from different tables or passages of the source.

Columns and labels:
Phaedon cochleariae = Phaedon cochleariae - spray test (PHAECO); assay type: in vivo; conditions: application rate of 500 g/ha; after 7 days; larvae of the mustard beetle on sprayed Chinese cabbage leaf discs; 100% = all larvae killed
Protocol: Phaedon cochleariae—Spray Test (PHAECO)
(§1) Solvent: 78.0 parts by weight of acetone • • 1.5 parts by weight of dimethylformamide
(§2) Emulsifier: alkylaryl polyglycol ether
(§3) To produce an appropriate active ingredient formulation, 1 part by weight of active ingredient is dissolved using the specified parts by weight of solvent and made up with water containing an emulsifier concentration of 1000 ppm until the desired concentration is attained. To produce further test concentrations, the preparation is diluted with emulsifier-containing water.
Discs of Chinese cabbage leaves (Brassica pekinensis) are sprayed with an active ingredient formulation of the desired concentration and, after drying, populated with larvae of the mustard beetle (Phaedon cochleariae).
After 7 days, the efficacy in % is determined. 100% means that all the beetle larvae have been killed; 0% means that no beetle larvae have been killed.

[1] = log P determination by LC-MS in the acidic range; assay type: physicochemical; conditions: for log P (acid): LC-MS in the acidic range
Source text: The LC-MS determination in the acidic range is effected at pH 2.7 using 0.1% aqueous formic acid and acetonitrile (contains 0.1% formic acid) as eluents, linear gradient from 10% acetonitrile to 95% acetonitrile. Alternatively, the determination is effected in the acidic range at pH 2.3 using 0.1% aqueous phosphoric acid and acetonitrile as eluents; linear gradient from 10% acetonitrile to 95% acetonitrile.

Myzus persicae [2] = test: Myzus persicae - sachet test; assay type: in vivo; conditions: 100% = all animals killed; for pest or weed control at 6 ppm / pest or weed control at 30 ppm: Myzus persicae, read-out: efficacy (kill in %)
In short: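 Active ingredient dissolved with 2% N-methylpyrrolidone and 2% diacetone alcohol, diluted in water, then pipetted into nutrient medium. Plate sealed and paired with a plate carrying green peach aphids. Kill in % scored after the set time (100% = all dead, 0% = none dead).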

Spodoptera frugiperda = Spodoptera frugiperda - spray test (SPODFR); assay type: in vivo; conditions: application rate of 500 g/ha; after 7 days; armyworm caterpillars on sprayed maize leaf discs; 100% = all caterpillars killed
Protocol: Spodoptera frugiperda—Spray Test (SPODFR)
as §1, §2, §3
Leaf discs of maize (Zea mays) are sprayed with an active ingredient formulation of the desired concentration and, after drying, populated with caterpillars of the armyworm (Spodopterafrugiperda).
After 7 days, the efficacy in % is determined. 100% means that all the caterpillars have been killed; 0% means that no caterpillars have been killed.

Myzus persicae [3] = test: Myzus persicae - spray test; assay type: in vivo; conditions: application rate of 500 g/ha, after 6 days, sprayed Chinese cabbage leaf discs infested by all stages, 100% = all aphids killed; for pest or weed control at 500 g/ha: Myzus persicae, foliar, 144 h, read-out: efficacy in %
In short: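 Chinese cabbage leaf discs infested with all stages of green peach aphid sprayed with compound in acetone/DMF formulation with alkylaryl polyglycol ether emulsifier, diluted in emulsifier-containing water. Efficacy (% aphids killed) assessed after 6 days.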

[4] = application rate of 6 ppm in nutrient medium
[5] = application rate of 30 ppm in nutrient medium
[6] = pH 2.7, LC-MS in the acidic range, read-out: log P (acid)
[7] = pH 2.7, values given in the synthesis examples and NMR lists, read-out: HPLC-MS: log P

log P (acid) [1]	chromatographic logP [1, 6]	chromatographic logP [1, 7]	SMILES	efficacy in % (Phaedon cochleariae) [%]	efficacy (kill in %) (Myzus persicae [2]; [4]) [%]	efficacy (kill in %) (Myzus persicae [2]; [5]) [%]	efficacy in % (Spodoptera frugiperda) [%]	efficacy in % (Myzus persicae [3])	pest or weed control at 6 ppm (Myzus persicae [2]; [4]) [%]	pest or weed control at 30 ppm (Myzus persicae [2]; [5]) [%]	pest or weed control at 500 g/ha (Myzus persicae [3]) [%]
1.95			Cc1cc(NC(=O)c2cccnc2)nn1C(=O)C(C)C [Compound I-1-130]	100	100	100	100	90%			
1.25			O=C(Nc1ccn(-c2ncccc2Cl)n1)c1cccnc1 [Compound I-1-48]	100		100	100				
0.63			Cc1cc(N(C)C(=O)c2cccnc2)nn1Cc1ncccn1 [Compound I-1-346]	100	100	100		100%			
3.98			Cc1cc(N(C(=O)c2cccnc2)C(=O)c2cccc(Cl)c2)nn1C(=O)c1cccc(Cl)c1 [Compound I-1-22]	83	100	100	83	100%			
0.94			Cc1c(Cl)c(NC(=O)c2cccnc2)nn1Cc1ncccn1 [Compound I-1-212]		100	100		90%			
0.92			Cc1cc(NC(=O)c2cccnc2)nn1C(C)C#N (stereo not drawn) [Compound I-1-214]		100	100		100%			
	2.04	2.04	Cc1cc(NC(=O)c2cccnc2)nn1C(=O)OC(C)(C)C [Compound I-1-18, tert-Butyl 5-methyl-3-[(pyridin-3-ylcarbonyl)amino]-1H-pyrazole-1-carboxylate]						100	100	100
0.86			Cc1cc(NC(=O)c2cccnc2)nn1C(=O)N(C)C [Compound I-1-291]		100	100		90%			
1.79			Cc1cc(NC(=O)c2cccnc2)nn1Cc1ccccc1 [Compound I-1-46]		100	100		100% and 90%			
1.27			Cc1cc(NC(=O)c2cccnc2)nn1C(=O)NC1CC1 [Compound I-1-312]		100	100		90%			
0.63			Cc1cc(NC(=O)c2cccnc2)nn1C [Compound I-1-3]		100	100		90%			
1.08			COC(=O)n1nc(NC(=O)c2cccnc2)cc1C [Compound I-1-126]		100	100		90%			
	1.1	1.1	O=C(Nc1cc(Br)n(Cc2ncccn2)n1)c1cccnc1 [Compound I-1-140, N-[5-Bromo-1-(pyrimidin-2-ylmethyl)-1H-pyrazol-3-yl]nicotinamide]						100	100	90
1.11			Cc1cc(NC(=O)c2cccnc2)nn1C(=O)c1ncccn1 [Compound I-1-345]		100	100		90%			
1.2			Cc1cc(C)nc(Cn2nc(NC(=O)c3cccnc3)cc2C)n1 [Compound I-1-36]		100	100		90%			
0.59			Cc1cc(NC(=O)c2cccnc2)nn1CS(C)(=O)=O [Compound I-1-244]		100	100		90%			
1.82			Cc1cc(NC(=O)c2cccnc2)nn1Cc1nc2ccc(Cl)cc2o1 [Compound I-1-342]		100	100		90%			
1.1			CCOCn1nc(NC(=O)c2cccnc2)cc1C [Compound I-1-2]		100	100		100%			

log P (acid) [1]	chromatographic logP [1, 6]	chromatographic logP [1, 7]	SMILES	efficacy in % (Phaedon cochleariae) [%]	efficacy (kill in %) (Myzus persicae [2]; [4]) [%]	efficacy (kill in %) (Myzus persicae [2]; [5]) [%]	efficacy in % (Spodoptera frugiperda) [%]	efficacy in % (Myzus persicae [3])	pest or weed control at 6 ppm (Myzus persicae [2]; [4]) [%]	pest or weed control at 30 ppm (Myzus persicae [2]; [5]) [%]	pest or weed control at 500 g/ha (Myzus persicae [3]) [%]
1.46			Cc1cc(NC(=O)c2cccnc2)nn1C(=O)NC(C)C [Compound I-1-287]		100	100		90%			
1.54			O=C(Nc1nn(Cc2ncccn2)c2ccccc12)c1cncc(F)c1 [Compound I-1-216]		100	100		90%			
4.18			Cc1cc(N(C(=O)c2ccc(Cl)cc2)C(=O)c2cccnc2)nn1C(=O)c1ccc(Cl)cc1 [Compound I-1-42]		80	100		90%			
1.75			CC(C)=CCn1nc(NC(=O)c2cccnc2)cc1C [Compound I-1-239]		100	100		90%			
1.19			Cc1cc(Cn2nc(NC(=O)c3cccnc3)cc2C)no1 [Compound I-1-283]		100	100		100%			
0.25			Cc1cc(NC(=O)c2cccnc2)nn1CC[S+](C)[O-] (stereo not drawn) [Compound I-1-183]		100	100		90%			
1.53			CCSCCn1nc(NC(=O)c2cccnc2)cc1C [Compound I-1-189]		100	100		90%			
1.43			O=C(Nc1ccn(CC(F)(F)F)n1)c1cccnc1 [Compound I-1-10]		100	100		90%			
1.67			Cc1cc(NC(=O)c2cccnc2)nn1C(=O)NC(C)(C)c1ncccn1 [Compound I-1-335]		100	100		90%			
1.87			CSCCC(=O)n1nc(NC(=O)c2cccnc2)cc1C [Compound I-1-266]		100	100		90%			
0.95			Cc1cc(NC(=O)c2cccnc2)nn1Cc1cscn1 [Compound I-1-295]		100	100		100%			
1.18			Cc1cc(NC(=O)c2cccnc2)nn1Cc1cc(C(=O)O)n(-c2ncccc2Cl)n1 [Compound I-1-156]		100	100		90%			
1.85			Cc1cc(NC(=O)c2cccnc2)nn1-c1cccc(F)c1 [Compound I-1-202]		80	100		90%			
2.19			Cc1cc(NC(=O)c2cccnc2)nn1C(=O)NCC(C)(C)C [Compound I-1-321]		100	100		100%			
1.24			Cc1cnn(Cn2nc(NC(=O)c3cccnc3)cc2C)c1 [Compound I-1-226]		100	100		100%			
−0.21			Cc1cc(NC(=O)c2cccnc2)nn1Cc1nccn1C [Compound I-1-293]		100	100		90%			
0.71			COCn1nc(NC(=O)c2cccnc2)cc1C [Compound I-1-175]		100	100		100%			
